{"source": "a melting point compilation (Tetko et al.; mined from patent text by program, amines drawn as free bases though some values may be those of a salt)", "data": [{"units": {"melting point": "°C"}, "values": [{"smiles": "O=C(Nc1cc(C(F)(F)F)cc(C(F)(F)F)c1)Nc1cc(C(F)(F)F)ccc1Oc1ccccc1C(=O)O", "melting point": "229 to 231"}, {"smiles": "Oc1c(Cl)c(Cl)c(-c2c(Cl)c(Cl)c(O)c(Cl)c2Cl)c(Cl)c1Cl", "melting point": "94 to 96"}, {"smiles": "COCCC(=O)N[C@H]1CC[C@H](CCN2CCN(c3nccc4ccoc34)CC2)CC1", "melting point": 146}, {"smiles": "N#Cc1nn(-c2c(Cl)cc(C(F)(F)F)cc2Cl)cc1SC(F)(F)F", "melting point": "126 to 128"}, {"smiles": "COc1ccc(CS(=O)(=O)c2ccc(S(N)(=O)=O)s2)cc1", "melting point": "198 to 203"}, {"smiles": "COC(=O)c1ccc(S(=O)(=O)C2CCN(CCc3ccc(F)cc3F)CC2)cc1", "melting point": "123 to 124"}, {"smiles": "CC(C#N)=NC(C#N)=C(N)C#N", "melting point": "220 to 221"}, {"smiles": "CCn1ncc2c1ncc1c(=O)[nH]c3nc(SC)nn3c12", "melting point": "> 300"}, {"smiles": "CC(C)c1ccc(NC(=O)C2CCCc3ccccc32)cc1", "note": "(stereo unspecified)", "melting point": 163}, {"smiles": "CC(=O)OCC1OC(OC(C)=O)C(O)C(OC(C)=O)C1OC(C)=O", "note": "(stereo unspecified)", "melting point": "163 to 165"}, {"smiles": "O=C1N[C@H](Cc2ccc(C(F)(F)F)cc2)[C@H](c2ccc(F)c(F)c2)O1", "note": "(racemic)", "melting point": "157 to 158"}, {"smiles": "CCC1(C)CCN(c2ccc([N+](=O)[O-])cc2C(=O)c2ccc(Cl)cc2)CC1", "melting point": 105}, {"smiles": "COC(=O)c1ccc(/C=C/c2c(OC)cc3c(c2OC)C(C)(C)CCC3(C)C)cc1", "melting point": "140 to 142"}, {"smiles": "O=C1Nc2ccc(-c3ccc(Cl)cc3)cc2C1=NO", "melting point": "236 to 237"}, {"smiles": "CN1C(=O)C(NC(=O)NC(C)(C)C)N=C(c2ccccc2)c2ccccc21", "note": "(stereo unspecified)", "melting point": "281 to 282"}, {"smiles": "CCc1nc(=O)[nH]c2cc(OC)c(OC)cc12", "melting point": "263 to 265"}, {"smiles": "CCCCC(=O)Nc1ccc(C(F)(F)F)c(-n2nc(CC)n(Cc3ccc(-c4ccccc4S(=O)(=O)NC(C)(C)C)cc3F)c2=O)c1", "melting point": "243 to 245"}, {"smiles": "O=C(NC(=O)c1c(F)cccc1F)Nc1cc(C(F)(F)F)c(Cl)cc1Br", "melting point": 196}, {"smiles": "C=CCC(=O)S/C=C\\C(=O)NCCCCCCCC", "melting point": "60 to 62"}, {"smiles": "CNC(=S)N1CCN(c2cnccn2)CC1", "melting point": "197 to 200"}, {"smiles": "COC(=O)c1cn2c(n1)COc1c(OC)cccc1-2", "melting point": "188 to 190"}, {"smiles": "CC(C)c1nc(-c2ccccc2)c(C(C)C)c(-c2ccc(F)cc2)c1CO", "melting point": "244 to 246"}, {"smiles": "CC(=O)c1ccc(CNC(=O)c2cccnc2Oc2ccc3nonc3c2)cc1", "melting point": "154 to 156"}, {"smiles": "CC(Oc1ccc2nc(-c3ccccc3OC(N)=O)sc2c1)c1ccccc1C(F)(F)F", "note": "(stereo unspecified)", "melting point": "200 to 205"}, {"smiles": "C#CC(C)Nc1c(C)cccc1C", "note": "(stereo unspecified)", "melting point": "32 to 33"}, {"smiles": "COc1ccc(Cn2c(=O)c3cnc(Nc4ccc(N5CCN(C)CC5)cc4)nc3n(C(C)C)c2=O)cc1", "melting point": "215 to 216"}, {"smiles": "O=C(Cc1ccc(Cl)c(Cl)c1)N1CCCC2CCCC(N3CCCC3)C21", "note": "(stereo unspecified)", "melting point": "82 to 84"}, {"smiles": "OCc1cc2c3ccccc3n(Cc3ccccc3)c2cn1", "melting point": "120 to 122"}, {"smiles": "CC(C)n1nc(-c2c(Cl)nc(N)nc2-c2ccccc2)ccc1=O", "melting point": "235 to 237"}, {"smiles": "C=CCc1cc(OC)c(OC)cc1CC(C#N)=COC", "melting point": "77 to 79"}, {"smiles": "C=CCSc1ccc(OCCO)nn1", "melting point": "38 to 40"}, {"smiles": "CC(C)C(=O)NCCOc1ccc(N)cc1", "melting point": "99 to 100"}, {"smiles": "OCc1cncc(-c2ccccc2)c1", "melting point": "71 to 72"}, {"smiles": "CCCCCC(=O)c1cc(Cl)ccc1N(CC(=O)OC)S(=O)(=O)c1ccc(C)cc1", "melting point": "68 to 70"}, {"smiles": "Fc1ccc2c(c1)nc(/C=C/c1ccoc1)n2-c1ccccn1", "melting point": "168 to 170"}, {"smiles": "C(=Cc1ncon1)c1ccccc1", "melting point": 82}, {"smiles": "COc1cc2c(cc1OC)C(C=NO)c1ccccc1CC2", "note": "(stereo unspecified)", "melting point": "176 to 177"}, {"smiles": "COc1cc2c(cc1C(F)(F)F)c(C(=O)Nc1cccnc1)cn2C", "melting point": "> 250"}, {"smiles": "S=C(Nc1ccccc1)N(Cc1ccc(Cl)cc1)C1CCCC1", "melting point": "129 to 132"}, {"smiles": "CC(C)c1c(C(=O)Nc2ccccc2)c(-c2ccc(F)cc2)cn1-c1ccccc1", "melting point": "192 to 194"}, {"smiles": "CC#CCOc1ccc(S(=O)(=O)C2(C(=O)O)CCN(Cc3ccc(C)cc3)CC2)cc1", "melting point": 188}, {"smiles": "Cc1ccnc(Nc2nc(-c3ccccc3O)cs2)c1", "melting point": "249 to 250"}, {"smiles": "COc1cc(C(=O)NS(=O)(=O)c2ccccc2C)ccc1Cc1cn(C)c2ccc(NC(=O)NC3CCCC3)cc12", "melting point": "212 to 215"}, {"smiles": "CCOC(=O)N1CCCCN1C(=S)Cl", "melting point": "160 to 162"}, {"smiles": "O=C1CCC(N2Cc3cc(CNC(=O)NC4CCCCC4)ccc3C2=O)C(=O)N1", "note": "(stereo unspecified)", "melting point": "265 to 267"}, {"smiles": "CNCc1noc(-c2cc(C(C)(C)C)c(O)c(C(C)(C)C)c2)n1", "melting point": "120 to 122"}, {"smiles": "O=C(O)c1cccc(-c2cccc(Oc3cccc(Cl)c3Cl)n2)c1", "melting point": "216 to 217"}, {"smiles": "O=C(Cc1ccccc1)Oc1cc(=O)n(-c2ccccc2)c2ncccc12", "melting point": "179 to 180"}, {"smiles": "Cc1ccc(S(=O)(=O)N(C)c2ccc(O)cc2)cc1[N+](=O)[O-]", "melting point": "173 to 174"}, {"smiles": "Cc1ccc(C=CC(=O)C=Cc2ccc(C)cc2)cc1", "melting point": "174 to 176"}, {"smiles": "COP(=O)(OC)C(O)=Cc1ccc2c(c1)C(=O)Cc1ccccc1O2", "melting point": 118}, {"smiles": "Clc1cccc2c1CNC2", "melting point": "48 to 50"}, {"smiles": "CCOC(=O)c1cn(Cc2ccccc2)nc1OCc1ccc(OCc2nc(-c3ccco3)oc2C)c(-c2ccccc2)c1", "melting point": "134 to 135"}, {"smiles": "CCCN(CCC)S(=O)(=O)c1cccc(C(=O)Nc2cccc([N+](=O)[O-])c2)c1", "melting point": "126 to 128"}, {"smiles": "CCOC(=O)c1sc(N2CCNC2=O)nc1C(F)(F)F", "melting point": "185 to 187"}, {"smiles": "Cn1c(-c2ccc(OC3CCN(C4CCC4)CC3)cc2)nc2ncccc2c1=O", "melting point": "146 to 150"}, {"smiles": "COC(=O)c1c(F)cc(OCCNC(=O)C2Cc3ccccc3N2S(=O)(=O)c2ccc(-c3cccc(C(F)(F)F)c3)cc2)cc1F", "note": "(stereo unspecified)", "melting point": "68 to 71"}, {"smiles": "Clc1ccc(N2CC=C(COc3ccc(C4=NCCO4)cc3)CC2)nn1", "melting point": 176}, {"smiles": "Cc1ccc(C(OS(=O)(=O)c2c(C)cc(C)c(S(=O)(=O)OC(c3ccc(C)cc3)(C(F)(F)F)C(F)(F)F)c2C)(C(F)(F)F)C(F)(F)F)cc1", "melting point": 178}, {"smiles": "C#CC(C)(C)N1CCN(C(=O)C(C)(C)C)CC1", "melting point": "106 to 109"}, {"smiles": "NCCCCOc1ccc2c(c1)NC(=O)C(CC(=O)O)C2", "note": "(stereo unspecified)", "melting point": "229 to 230"}, {"smiles": "CCOC(=O)c1ccc(/C=C(\\C)c2cc3c(s2)C(C)(C)CCC3(C)C)nc1", "melting point": "83 to 84"}, {"smiles": "CCN1CCN(c2nc(-c3ccc(O)cc3)cc3ccccc23)CC1", "melting point": "204 to 206"}, {"smiles": "Cc1cc(C23CC4CC(CC(C4)C2)C3)ccc1NC(=O)c1cc([N+](=O)[O-])ccc1Br", "melting point": 229}, {"smiles": "CC(=O)Oc1cccc2c1N=CC1CCCN1C2=O", "note": "(stereo unspecified)", "melting point": "143 to 146"}, {"smiles": "O=C(CCCCc1ccc2c(c1)OCO2)NC1CCCCC1", "melting point": "145 to 146"}, {"smiles": "CCCN(CCc1c[nH]c2ccc(F)cc12)C1COc2c(F)ccc(C(N)=O)c2C1", "note": "(stereo unspecified)", "melting point": 125}, {"smiles": "O=C1CCCC(c2ccc(O)c(O)c2)N1c1ccc(Cl)cc1", "note": "(stereo unspecified)", "melting point": "205 to 207"}, {"smiles": "O=C(CC1CCCCC1)Nc1c(Cl)ccc2nc(CCCNCCCO)ccc12", "melting point": "159 to 163"}, {"smiles": "O=C(NC1CCCC1)c1ccc(F)c2c1CC(N(CCCc1c[nH]c3ccc(F)cc13)C1CCC1)CO2", "note": "(stereo unspecified)", "melting point": 133}, {"smiles": "CCc1ccc(CCC(=O)O)c(C(=O)O)c1", "melting point": 174}]}]}
